{"source": "paper PMC10041521", "about": "“Fluorescent Activity-Based Probe To Image and Inhibit Factor XIa Activity in Human Plasma” (Journal of Medicinal Chemistry, 2023)", "type_in_all_cases": "biochemical", "key": {"[1]": {"biological_target": "T1, fXIa (Homo sapiens, UniProt P03951)", "T1 sequence (P03951 388-625 limits assumed)": "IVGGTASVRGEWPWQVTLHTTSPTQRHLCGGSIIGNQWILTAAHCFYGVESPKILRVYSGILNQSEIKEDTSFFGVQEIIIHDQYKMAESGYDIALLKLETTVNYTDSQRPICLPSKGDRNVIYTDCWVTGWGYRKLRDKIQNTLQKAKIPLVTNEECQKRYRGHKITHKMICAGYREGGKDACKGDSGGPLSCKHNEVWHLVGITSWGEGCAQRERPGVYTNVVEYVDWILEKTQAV", "T1 sequence (P03951 19-387 partner limits assumed)": "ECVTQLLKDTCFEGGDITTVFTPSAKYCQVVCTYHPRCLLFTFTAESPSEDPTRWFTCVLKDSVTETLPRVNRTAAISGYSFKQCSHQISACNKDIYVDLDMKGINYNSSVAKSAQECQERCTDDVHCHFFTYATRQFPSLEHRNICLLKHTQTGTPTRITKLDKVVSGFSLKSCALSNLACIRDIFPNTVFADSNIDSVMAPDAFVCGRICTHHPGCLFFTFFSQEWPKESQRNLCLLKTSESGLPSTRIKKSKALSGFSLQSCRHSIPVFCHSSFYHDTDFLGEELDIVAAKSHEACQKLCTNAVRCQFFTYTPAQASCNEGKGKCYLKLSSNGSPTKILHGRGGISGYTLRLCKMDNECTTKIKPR", "experiment": "Screening of individual substrates (hydrolysis rate, RFU/s)", "set-up": "complete conversion of the single chain zymogen to the two-chain active form; made in house; host or cells: HEK293 cells expressing EBNA (pCEP4 vector)", "details": "substrate 1 μM, 5 nM fXIa, RFU/s over 30 min, 37 °C", "description": "(§1) All kinetic assays were performed using a spectrofluorometer (Molecular Devices SpectraMax Gemini XPS) on 96-well, white, flat bottom, nontreated plates (Corning). The parameters were as follows: excitation/emission wavelength, 355/460 nm (cutoff, 455 nm); varying concentrations of substrates, ABPs, inhibitor, and enzymes. The assay buffer (20 mM Tris-base, 150 mM NaCl, 5 mM CaCl2, pH 7.4) was prepared at room temperature, and the enzyme kinetic studies were performed at 37 °C. All enzymes were preincubated in assay buffer for 15 min at 37 °C before addition to the wells. Each assay was repeated at least twice, and the data represent the average of these repetitions. The obtained results were analyzed using SoftMax (Molecular Devices), GraphPad Prism, and Microsoft Excel software.\nAll potentially selective fXIa substrates were tested for their selectivity against four coagulation factors, APC, thrombin, fXa, and fXIa at a concentration of 1 μM. The assay conditions were as follows: 1 μL of each substrate was placed in separate wells on the plate followed by the addition of 99 μL of preincubated enzyme (15 min, 37 °C) in assay buffer. To obtain reliable results and a robust fluorescence signal, the final enzyme concentration was 120 nM for APC, 20 nM for thrombin, 70 nM for fXa, and 5 nM for fXIa. Substrate hydrolysis was measured for 30 min (λex = 355 nm, λem = 460 nm), and the linear part of each progress curve was used to determine the substrate hydrolysis rate (RFU/s). The obtained RFU/s were then adjusted to represent the value corresponding to the same enzyme activity."}, "[2]": {"biological_target": "T1, fXIa", "experiment": "Kinetic parameters (kcat/KM) of ACC-labeled substrates", "set-up": "complete conversion of the single chain zymogen to the two-chain active form; made in house; host or cells: HEK293 cells expressing EBNA (pCEP4 vector)", "details": "for kcat/KM fXIa: Michaelis-Menten, 5 nM fXIa, 20 mM Tris, 150 mM NaCl, 5 mM CaCl2, pH 7.4, 37 °C, ACC release 30 min, mean ± s.d., n = 3", "description": "as §1\n(§2) The kinetic parameters (kcat, KM, and kcat/KM) of selected ACC-labeled substrates were determined using Michaelis–Menten nonlinear regression according to the protocol described by Poreba et al.[62] Each substrate was serially diluted until the eighth well to obtain substrate concentrations ranging from 1.16 nM to 111 μM depending on the substrate used. Next, each enzyme was preincubated (15 min, 37 °C) in assay buffer to a final enzyme concentration of 425 nM for APC, 70 nM for thrombin, 200 nM for fXa, and 5 nM for fXIa and was added to the wells containing eight different substrate concentrations. The release of ACC was measured for 30 min (λex = 355 nm, λem = 460 nm). The linear part of each progression curve was used to calculate the kinetic parameters using GraphPad Prism and Microsoft Excel software."}, "[3]": {"biological_target": "T2, fXa (Homo sapiens, UniProt P00742)", "T2 construct": "from tissue; host or cells: fresh frozen plasma", "T2 sequence (P00742 235-488 limits assumed)": "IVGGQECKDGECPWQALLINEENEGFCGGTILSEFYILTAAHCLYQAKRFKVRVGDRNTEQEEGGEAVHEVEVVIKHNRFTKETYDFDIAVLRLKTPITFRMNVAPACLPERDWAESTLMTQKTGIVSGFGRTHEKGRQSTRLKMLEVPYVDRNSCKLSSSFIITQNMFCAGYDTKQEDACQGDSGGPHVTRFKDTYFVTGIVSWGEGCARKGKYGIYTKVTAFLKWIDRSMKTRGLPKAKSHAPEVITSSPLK", "T2 sequence (P00742 41-179 partner limits assumed)": "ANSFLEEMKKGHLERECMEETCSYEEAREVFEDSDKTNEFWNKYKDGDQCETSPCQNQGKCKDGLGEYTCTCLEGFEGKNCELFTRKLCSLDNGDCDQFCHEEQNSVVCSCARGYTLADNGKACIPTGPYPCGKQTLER", "experiment": "Kinetic parameters (kcat/KM) of ACC-labeled substrates", "details": "Michaelis-Menten, 200 nM fXa, assay buffer pH 7.4, 37 °C, ACC release 30 min; mean ± s.d., n = 3", "description": "(§3) Protein C, factor X, and prothrombin were purified from fresh frozen plasma and then activated as previously described.[33]\nas §1, §2"}, "[4]": {"biological_target": "T3, thrombin (Homo sapiens, UniProt P00734)", "T3 construct": "from tissue; host or cells: fresh frozen plasma", "experiment": "Kinetic parameters (kcat/KM) of ACC-labeled substrates", "details": "Michaelis-Menten, 70 nM thrombin, assay buffer pH 7.4, 37 °C, ACC release 30 min; mean ± s.d., n = 3", "description": "as §3, §1, §2"}, "[5]": {"biological_target": "T1, fXIa", "experiment": "Detection of fXIa in human plasma with fluorescent ABP", "details": "EDTA plasma, 60 min, 37 °C", "description": "Human plasma (collected in tubes containing anticoagulant EDTA) was isolated from whole blood as described elsewhere[33] and incubated with a fluorescently labeled probe at probe concentrations ranging from 1 to 20 μM. Incubation was carried out in assay buffer for 60 min at 37 °C. Plasma was incubated with the probe in a total volume of 40 μL (20 μL of plasma and 20 μL of probe) followed by reduction with 20 μL of 3 × SDS/DTT for 5 min at 95 °C. The first well was loaded with 0.5 μL of the protein marker PageRuler Prestained Protein Ladder (Thermo Scientific), and then 5 μL of each sample was run on a 12% (w/v) 15-well gel. SDS–PAGE separation was performed at 200 V for 39 min followed by transfer to a nitrocellulose membrane (0.2 μm, Bio-Rad) at 10 V for 60 min. The membrane was blocked with 2.5% BSA in TBS-T for 60 min at room temperature. Next, the membrane was treated with sheep antihuman polyclonal fXI antibody (Haematologic Technologies Inc., PAHFXI-S, 1:1000) for 7 h followed by incubation with Alexa Fluor 680 donkey antisheep secondary antibody (Life Technologies, A21102, 2:10,000) for 1 h (both at room temperature). The membrane was then scanned using an Azure Biosystems Sapphire Biomolecular Imager and Azure Spot Analysis software for fXIa at 488 nm (for BODIPY detection) and 658 nm (for antibody detection)."}, "[6]": {"biological_target": "T1, fXIa", "experiment": "Labeling of purified coagulation factors with ABPs, SDS-PAGE and blot", "set-up": "complete conversion of the single chain zymogen to the two-chain active form; made in house; host or cells: HEK293 cells expressing EBNA (pCEP4 vector)", "details": "APC, thrombin, fXa, fXIa 200 nM each, separately, probe/enzyme 1:1, 30 min, 37 °C; for labeling of purified coagulation factors by biotinylated ABP (western blot): streptavidin Alexa Fluor 647, 658 nm", "description": "To determine biotin-labeled ABPs selectivity, four purified coagulation factors (APC, thrombin, fXa, and fXIa) with a constant concentration of 200 nM were incubated separately with each probe (the probe/enzyme ratio was 1) in assay buffer for 30 min at 37 °C. Each enzyme was incubated with each probe in a volume of 40 μL followed by reduction with 20 μL of 3 × SDS/DTT for 5 min at 95 °C. The first well was loaded with 0.5 μL of the protein marker PageRuler Prestained Protein Ladder (Thermo Scientific), and then 10 μL of each sample was run on a 12% (w/v) 15-well gel. SDS–PAGE separation was performed at 200 V for 39 min followed by a wet tank transfer to a nitrocellulose membrane (0.2 μm, Bio-Rad) at 10 V for 60 min. The membrane was blocked with 2.5% BSA in TBS-T (Tris-buffered saline with 0.1% (v/v) Tween 20) for 60 min at room temperature. Next, the membrane was incubated with fluorescent streptavidin Alexa Fluor 647 conjugate (dilution 1:10,000 in TBS-T with 1% BSA) for 60 min. The biotin-labeled ABPs were detected at 658 nm using an Azure Biosystems Sapphire Biomolecular Imager and Azure Spot Analysis software.\nFor fluorescently labeled probe sample preparation, electrophoresis and membrane transfer were performed as described above. When testing the inhibitor utility, 200 nM fXIa was incubated with inhibitor (final inhibitor concentration 5 μM) for 60 min prior to probe addition. After the membrane was blocked with 2.5% BSA in TBS-T (60 min), the labeled proteins were directly imaged with a […] laser using an Azure Biosystems Sapphire Biomolecular Imager and Azure Spot Analysis software."}, "[7]": {"biological_target": "T1, fXIa", "experiment": "P1 substrate specificity, defined library Ac-Ala-Arg-Leu-P1-ACC", "set-up": "complete conversion of the single chain zymogen to the two-chain active form; made in house; host or cells: HEK293 cells expressing EBNA (pCEP4 vector)", "details": "individual substrates Ac-Ala-Arg-Leu-P1-ACC, 100 μM, 8 nM fXIa, RFU/s, best residue = 100%, n = 2", "description": "as §1\nTo determine fXIa preferences at the P1 position, we used the Ac-Ala-Arg-Leu-P1-ACC library of 133 individual fluorogenic substrates.[34] The assay conditions were as follows: 0.5 μL of each library substrate was placed in one well, and 99.5 μL of preincubated enzyme (15 min, 37 °C) was added. The final library concentration was 100 μM, and the enzyme concentration was 8 nM. The release of ACC was measured for 30 min (λex = 355 nm, λem = 460 nm), but only the linear portion of each progress curve was used to determine the substrate hydrolysis rate (RFU/s, relative fluorescence unit per second). […]"}, "[8]": {"biological_target": "T4, APC (Homo sapiens, UniProt P04070)", "T4 construct": "from tissue; host or cells: fresh frozen plasma", "T4 sequence (P04070 212-461 limits assumed)": "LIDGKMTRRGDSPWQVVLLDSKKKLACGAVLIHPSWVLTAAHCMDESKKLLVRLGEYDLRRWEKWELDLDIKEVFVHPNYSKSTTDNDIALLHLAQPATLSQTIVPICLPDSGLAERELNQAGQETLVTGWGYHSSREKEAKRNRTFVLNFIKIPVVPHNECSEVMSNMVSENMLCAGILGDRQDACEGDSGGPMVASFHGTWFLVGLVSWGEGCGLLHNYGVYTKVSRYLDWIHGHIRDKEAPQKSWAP", "T4 sequence (P04070 43-197 partner limits assumed)": "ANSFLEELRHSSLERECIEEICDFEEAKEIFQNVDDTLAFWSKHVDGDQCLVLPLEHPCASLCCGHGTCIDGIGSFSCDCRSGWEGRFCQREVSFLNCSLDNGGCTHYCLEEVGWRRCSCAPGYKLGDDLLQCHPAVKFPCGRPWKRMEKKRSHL", "experiment": "Kinetic parameters (kcat/KM) of ACC-labeled substrates", "details": "Michaelis-Menten, 425 nM APC, assay buffer pH 7.4, 37 °C, ACC release 30 min; mean ± s.d., n = 3", "description": "as §3, §1, §2"}}, "note": "Where “and” joins values, the source holds several entries; their conditions need not be identical. Equal entries are not always repeated. [ ]: non-standard residue; d: D form. The star is where a group is joined. ACC = NC(=O)Cc1cc(=O)oc2cc(N*)ccc12; Nle = CCCC[C@H](N)C(=O)O; OBn = c1ccc(CO*)cc1; Bn = c1ccc(C*)cc1"}
{"substance": "Ac-Tyr(2,6-Cl2-Z)-2-Aoc-Glu(Bzl)-Arg-ACC [SMXI7]", "values": [{"measurement": "decrease in activity relative to SMXI3 (P2 L-His(Bzl))", "setting": "[1]", "value": 1.5, "unit": "fold"}]}
{"substance": "Ac-Y(Bn)[Nle]E(OBn)R-{ACC} (SMILES CCCC[C@H](NC(=O)[C@H](Cc1ccc(OCc2ccccc2)cc1)NC(C)=O)C(=O)N[C@@H](CCC(=O)OCc1ccccc1)C(=O)N[C@@H](CCCNC(=N)N)C(=O)Nc1ccc2c(CC(N)=O)cc(=O)oc2c1) [SMXI13]", "values": [{"measurement": "activity on fXIa relative to SMXI5", "setting": "[1]; more active than SMXI5", "value": "fourfold"}]}
{"substance": "Ac-Tyr(2,6-Cl2-Z)-Nle-Glu(Bzl)-Arg-ACC [SMXI5]", "values": [{"measurement": "kcat/KM fXIa", "setting": "[2]", "value": "99,000 ± 7,000 M^-1 s^-1"}, {"measurement": "kcat/KM fXa", "setting": "[3]", "value": "4,500 ± 300 M^-1 s^-1"}, {"measurement": "kcat/KM thrombin", "setting": "[4]", "value": "11,000 ± 300 M^-1 s^-1"}]}
{"substance": "BODIPY-PEG(4)-Tyr(2,6-Cl2-Z)-Nle-Glu(Bzl)-ArgP(OPh)2 [P-SMXI52]", "values": [{"measurement": "probe concentration from which a clear fXIa band is observed in human plasma", "setting": "[5]; probe 1-20 μM, SDS-PAGE, 488 nm, costaining with antifXI antibody", "value": "≥ 2", "unit": "µM"}, {"measurement": "selectivity of labeling in human plasma", "setting": "[5]; probe up to 20 μM", "value": "remained selective even at a high probe concentration (20 μM)"}, {"measurement": "labeling of purified coagulation factors by fluorescent ABP (blot, 488 nm)", "setting": "[6]", "value": "only one fluorescent band generated by fXIa labeling and no off-target signals"}]}
{"substance": "biotin-PEG(4)-Tyr(2,6-Cl2-Z)-Nle-Glu(Bzl)-ArgP(OPh)2 [P-SMXI51]", "values": [{"measurement": "labeling of purified coagulation factors by biotinylated ABP (western blot)", "setting": "[6]", "value": "only one signal from a protein between 35 and 40 kDa, corresponding to a fXIa monomer"}]}
{"substance": "Ac-Tyr(2,6-Cl2-Z)-2-Aoc-hSer(Bzl)-Arg-ACC [SMXI23]", "values": [{"measurement": "decrease in activity relative to SMXI3 (P2 L-His(Bzl))", "setting": "[1]", "value": 5.5, "unit": "fold"}]}
{"substance": "L-Arg", "values": [{"measurement": "relative activity at the P1 position", "setting": "[7]", "value": 100, "unit": "%"}]}
{"substance": "Ac-Tyr(2,6-Cl2-Z)-Dht-His(Bzl)-Arg-ACC [SMXI19]", "values": [{"measurement": "kcat/KM fXIa", "setting": "[2]", "value": "247,000 ± 5,000 M^-1 s^-1 and 247,000 ± 5000 M^-1 s^-1"}, {"measurement": "fold better hydrolyzed by fXIa than by fXa (kcat/KM ratio)", "setting": "[2]; fXIa over fXa", "value": 80, "unit": "fold"}, {"measurement": "fold better hydrolyzed by fXIa than by thrombin (kcat/KM ratio)", "setting": "[2]; fXIa over thrombin", "value": 28, "unit": "fold"}, {"measurement": "kcat/KM APC", "setting": "[8]", "value": "91 ± 3", "unit": "M⁻¹ s⁻¹"}]}
{"substance": "biotin-PEG(4)-Tyr(2,6-Cl2-Z)-Dht-His(Bzl)-ArgP(OPh)2 [P-SMXI191]", "values": [{"measurement": "labeling of purified coagulation factors by biotinylated ABP (western blot)", "setting": "[6]", "value": "only one signal from a protein between 35 and 40 kDa, corresponding to a fXIa monomer"}]}
{"substance": "Ac-Tyr(2,6-Cl2-Z)-2-Aoc-Nle(O-Bzl)-Arg-ACC [SMXI22]", "values": [{"measurement": "decrease in activity relative to SMXI3 (P2 L-His(Bzl))", "setting": "[1]", "value": 2.6, "unit": "fold"}]}
